Test results from PubChem BioAssay AID1508591.

conditions: rat; liver microsomes; pH 7.4; 15.0 min; 1.0 µM

half-life | Structure (SMILES)
7 min | Cc1cn2c(-c3cn[nH]c3)cnc2c(Nc2ccc(C(=O)N3CCNCC3)cc2F)n1
10 min | Cc1cnccc1-c1nc(Nc2ccc(F)c(F)c2)c2ccccc2n1
3.27 min | Cc1cc(-c2nnc3n2CCCCC3)c(C)n1-c1ccccc1
1.7 min | Oc1ccc(C(=S)N2CCN(c3cccc(Cl)c3)CC2)cc1
> 30 min | COc1c2c(c3c(c1CCC(=O)O)OC(C)(C)C=C3)OC(C)(C)C=C2
> 30 min | CC[C@H](C)[C@@H]([C@@H](CC(=O)N1CCC[C@H]1[C@H](OC)[C@@H](C)C(=O)N[C@@H](Cc1ccccc1)c1nccs1)OC)N(C)C(=O)[C@@H](NC(=O)[C@H](C(C)C)N(C)C)C(C)C
2.6 min | COc1ccc(-n2nc3c(N4CCCC(C(=O)NCCc5ccc(C)cc5)C4)nnc(C)c3c2C)cc1 (stereo unspecified)
> 30 min | O=C(Cc1ccc(Cl)c(Cl)c1)Nc1ccc(S(=O)(=O)Nc2ccon2)cc1
2.08 min | Cc1ccc(NS(=O)(=O)c2ccc3[nH]c4c(c3c2)CCCCCC4)cc1
2.06 min | NC(=O)C1CCN(c2nc(-c3ccc(Br)cc3)cs2)CC1
16 min | O=C1Nc2ccccc2/C1=C\c1ccc(O)c(Cl)c1
1.6 min | COc1cccc(CNc2ccc(S(=O)(=O)Nc3cccs3)cc2)c1O
2.04 min | CN(C(=O)CSc1nc2ccc(NC(=O)c3ccc(F)cc3)cc2s1)c1ccccc1
1.88 min | O=S(=O)(c1ccccc1)c1nnn2c1nc(NCc1cccs1)c1sccc12
2.4 min | O=C(Nc1ccc([S+](=O)([O-])Nc2nccs2)cc1)c1ccccn1
1.6 min | CC(C)(C)c1ccc(-c2ccc(=O)n(CC(=O)NCCc3ccccc3)n2)cc1
> 30 min | Cc1cnc(-c2ccccc2C2COC2)nc1NCC1CCN(c2cccnc2)CC1
4.3 min | COc1ccc(NS(=O)(=O)c2ccc(C)c(C(=O)Nc3ccc4oc(C)nc4c3)c2)cc1
> 30 min | NS(=O)(=O)c1ccc(NC(=O)c2cc3ncccn3n2)cc1
1.4 min | CC(=O)c1c(C)c(C(=O)Nc2cccc([S+](=O)([O-])N3CCCCCC3)c2)n(C)c1C
10 min | Fc1ccc(F)c(Nc2nc(-c3ccncc3)nc3ccccc23)c1
> 30 min | N#Cc1ccc(NS(=O)(=O)c2ccc(NC(=O)Cc3ccc(F)c(Cl)c3)cc2)cc1
8.6 min | Cc1sc(NC(=O)Cc2ccc3c(c2)OCO3)nc1-c1ccc2c(c1)CCN2
1.7 min | CC(=O)c1c(C)[nH]c(C(=O)Nc2cccc(S(=O)(=O)N3CCCCC3)c2)c1C
28 min | Fc1cc(Nc2nc(-c3ccncc3)nc3ccccc23)ccc1OCC(F)(F)F

half-life | Structure (SMILES)
> 30 min | O=C(Nc1ccc(S(=O)(=O)Nc2ncc(-c3ccccc3)s2)cc1)c1ccc2ccccc2c1
1.12 min | CCC(CC)C(=O)NC[C@@H]1C=C(C)[C@H](Cc2nc3c(C)cccc3[nH]2)C[C@H]1C(C)C
10.5 min | CN(C)CCCn1cc(C2=C(c3c[nH]c4ccccc34)C(=O)NC2=O)c2ccccc21
5.85 min | Cc1cccc(-n2cnc3cc(C(=O)N4CCCCC4)ccc32)c1
23.1 min | CCCOC(c1cc2nccc(C(=O)O)c2[nH]1)c1ccccc1Cl (stereo unspecified)
6.9 min | Cc1ccc(S(=O)(=O)Nc2cnccc2C(=O)Nc2nc(-c3ccc(Oc4ccccc4)cc3)cs2)cc1
2.76 min | Cc1cccc(N2CCN(C(=O)Cn3ncc4c3-c3ccccc3OC4)CC2)c1C
16 min | O=C(c1ccc2c(c1)ncn2-c1ccccc1)N1CCCCC1
1.45 min | CC1CCN(S(=O)(=O)c2ccc3c(ccc(=O)n3CC(=O)NCc3ccc(Cl)cc3)c2)CC1
> 30 min | Cc1cc(NS(=O)(=O)c2ccc(NC(=O)Cc3ccc(F)c(Cl)c3)cc2)no1
> 30 min | CCS(=O)(=O)N1CC(CC#N)(n2cc(-c3ncnc4[nH]ccc34)cn2)C1
3.47 min | Fc1ccc(CN2CCOC[C@H]2c2ncc(-c3ccc(Cl)s3)[nH]2)cc1
9.18 min | FC(F)(F)c1ccccc1-c1nc(NCc2ccc(-c3cccnc3)cc2)c2ccccc2n1
15 min | Cc1ccnc(NC(=S)N2CCN(c3cccc(C(F)(F)F)n3)CC2)c1
> 30 min | COc1ccc(NC(=O)c2[nH]c(C)c(C(C)=O)c2C)cc1S(=O)(=O)Nc1ccc(C#N)cc1
1.54 min | CC1=Nc2cc(C(=O)NCCc3ccccc3)ccc2Sc2c(C)ccc(C)c21
8.1 min | Cc1cc(-c2nnc3n2CCCCC3)c(C)n1-c1cccc(C#N)c1
> 30 min | CCCCn1cnc2cc(NC(=O)c3cc(OC)c(OC)c(OC)c3)ccc21
1.8 min | CCOc1cc(F)c(CCNC(=O)c2cc3sccc3n2Cc2ccccc2)cc1OCC
> 30 min | COc1cccc(CNc2ccc(S(=O)(=O)Nc3cc(C)on3)cc2)c1O
> 30 min | COc1ccc(NC(=O)c2[nH]c(C)c(C(C)=O)c2C)cc1
> 30 min | Cc1cc(C)nc(NC(=S)N2CCN(Cc3cccc(C(F)(F)F)c3)CC2)c1
21 min | CC(=O)c1ccc(N[S+](=O)([O-])c2cccc(NC(=O)c3[nH]c(C)c(C(C)=O)c3C)c2)cc1
4.05 min | Cn1cc(C2=C(c3cn(C)c4cc([N+](=O)[O-])ccc34)C(=O)NC2=O)c2ccccc21
8.7 min | O=c1cc(CN2CCCN(c3ccc(C(F)(F)F)cn3)CC2)nc2ccccn12

half-life | Structure (SMILES)
10.5 min | Cc1ccccc1C(=O)Nc1nc2c(s1)CC(C(C)(C)C)CC2 (stereo unspecified)
4.1 min | Cc1ccc(S(=O)(=O)Nc2cnccc2C(=O)Nc2nc3ccccc3s2)cc1
7.9 min | CCN1CCN(CCCOc2ccc(-c3ccccc3)cc2)CC1
2.82 min | CCOc1ccc(S(=O)(=O)NCc2cccnc2)cc1NC(=O)c1ccccc1F
16 min | Cc1ccc(S(=O)(=O)Nc2cccc(C(=O)Nc3nc(-c4ccccc4)cs3)c2)cc1
> 30 min | CNC(=O)c1nn(C)c2c1C(C)(C)Cc1cnc(Nc3ccc(N4CCN(C)CC4)cc3)nc1-2
7.1 min | CCCn1cnc2cc(NCc3ccc(OC)cc3OC)ccc21
24.2 min | Cc1cc2c(-c3cccc(O)c3)nc(-c3c(C)noc3C)cc2[nH]1
15 min | Cc1ccc(-n2nc(C)c3c(-c4ccc(O)c(O)c4)c(C#N)c(N)nc32)cc1C
> 30 min | COc1ccc(-c2nc3c(c(SCC(=O)Nc4ccc(C(=O)O)cc4)n2)Cc2ccccc2O3)cc1
2.4 min | O=S(=O)(Nc1cccc2cccnc12)c1ccc(NCc2ccc(Br)cc2O)cc1
> 30 min | COc1ccc(NC(=O)c2[nH]c(C)cc2C)cc1S(=O)(=O)Nc1ccc(Br)cc1
> 30 min | NC(=O)C1CCN(c2cc(-c3ccc4c(c3)OCCCO4)ncn2)CC1
1.74 min | CC(C)(C)c1ccc(SC2=NS(=O)(=O)c3ccccc32)cc1
> 30 min | O=C(O)c1ccnc2cc(C(OCC3CCC(F)(F)CC3)c3ccccc3Cl)[nH]c12 (stereo unspecified)
> 30 min | Cc1ccc(S(=O)(=O)Nc2cnccc2C(=O)Nc2nc(-c3ccc(Cl)cc3)cs2)cc1
> 30 min | COc1ccc(-c2ccc3nc(-c4ccccc4C)oc3c2)c(OC)c1OC
3.57 min | CCOC(=O)c1cc(-c2ccco2)nc2c1c(C)nn2CCC#N
4.33 min | CCCCOc1ccc(CNC(=O)c2cc3n(n2)CCCN(Cc2ccc(C)cc2)C3=O)cc1
12 min | COc1cc(/C=C2\C(=O)Nc3ccccc32)ccc1O
7.8 min | CCN1C(=O)c2ccccc2S(=O)c2ccc(C(=O)NCc3ccc(OC)cc3)cc21 (stereo unspecified)
7.87 min | COc1ccc(OC)c(-c2cc(C(=O)N3CCN(c4ncccn4)CC3)c3ccccc3n2)c1
3.26 min | COCCNC(=O)c1ccc(-c2ccc(N3CCCCC3)nc2)cc1
14.1 min | Cc1ccc(NC(=O)NCC2CCN(Cc3cccc(Cl)c3)CC2)cc1Cl
9.82 min | Fc1ccc(Nc2nc(-c3ccncc3)nc3ccccc23)cc1F

half-life | Structure (SMILES)
> 30 min | C[C@@H](CCC[C@@H]1SC[C@H]2NC(=O)N[C@H]12)C(=O)O
3 min | CC(C)c1ccccc1-c1ncc(F)c(NCC2CCN(c3cccnc3)CC2)n1
> 30 min | CCN(CCN(C)C)C(=O)C1CCN(S(=O)(=O)c2c(C)noc2/C=C/c2ccccc2F)CC1
1.34 min | Cc1ccc(CNCc2cn[nH]c2-c2ccc(C)cc2)cc1
2.4 min | COc1ccc(-n2c(C)c(C(C)=O)c3ccccc32)cc1
> 30 min | COc1ccc(CNC(=O)Cn2nc3c(cc2=O)CCCC3)cc1
1.88 min | Cn1cc2c3c(cccc31)CN(C(=O)c1ccc(F)c(Cl)c1)CC2
4.4 min | Cn1cc(C2=C(c3cn(CCCSC(=N)N)c4ccccc34)C(=O)NC2=O)c2ccccc21
2.08 min | CN(C)c1cccc(-c2ncc(F)c(N3CCC(C(N)=O)CC3)n2)c1
2.7 min | COc1cccc(CNc2ccc(S(=O)(=O)Nc3ccc(-c4ccccc4)cc3)cc2)c1O
6.5 min | O=C(Nc1nc(-c2ccccc2)cs1)c1ccncc1NS(=O)(=O)c1ccc(F)cc1F
4.7 min | COc1ccccc1NS(=O)(=O)c1cccc(NC(=O)c2[nH]c(C)c(C(C)=O)c2C)c1
1.82 min | COCCN1CCNc2nc(COc3ccc(C(C)C)cc3)n(Cc3ccccc3)c2C1=O
> 30 min | COc1cccc(CNc2ccc(S(=O)(=O)Nc3nccs3)cc2)c1N
10.1 min | Cn1c(=O)cc(C(=O)NC2CCCc3c2[nH]c2c(Cl)cccc32)c2ccccc21 (stereo unspecified)
2.55 min | COc1cc(C2CC(=O)Nc3cc4c(cc32)OCCO4)cc(Br)c1OC (stereo unspecified)
> 30 min | CC(C)NC(=O)c1nc(-c2ccc(Cl)nc2)c2cnccn12
12 min | COc1ccc(NS(=O)(=O)c2ccc(C)cc2)cc1C(=O)Nc1nc(-c2ccccc2)cs1
1.15 min | CC(CNC(=O)C1CCN(Cc2cc3ccccc3n2Cc2ccccc2)CC1)c1ccccc1 (stereo unspecified)
13.9 min | COc1ncccc1-c1cc2c(ccn2CC2CCN([S+](C)(=O)[O-])CC2)c(N2CCOCC2)n1
10 min | COc1cccc(CNc2ccc(S(=O)(=O)Nc3ccc4ccccc4c3)cc2)c1O
1.7 min | Cc1noc(C)c1C(=O)N1CCC2(CCCN(C(c3ccccc3)c3ccccc3)C2)CC1
> 30 min | O=C(c1ccc2c(c1)OCO2)N1CCC(Cc2nc(-c3cnccn3)no2)CC1

Structure (SMILES) | half-life
Oc1ccc2[nH]cc(CCCCN3CC=C(c4ccccc4)CC3)c2c1 | > 30 min
C[C@H]1[C@@H](CCC(=O)Nc2ccc(F)cc2)O[C@@H]2O[C@]3(C)CC[C@@H]4[C@H](C)CC[C@@H]1[C@@]24OO3 | 2 min
O=c1c(-c2cccs2)ccc2n1C[C@H]1C[C@@H]2CN(C2CCOCC2)C1 | 14.6 min
